Consider 18 molecules from PubChem BioAssay (NCI).

Structures are written as SMILES.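 All cell lines were grown in 96-well plates and treated with compound for 48 hours. GI50 is the concentration that inhibits growth by half. TGI: concentration producing complete growth inhibition.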

Holding throughout (assay): DTP human tumour cell line panel, 48 h
Assay [1] deals with RXF 393 renal.
The subject of assay [2] is CAKI-1 renal.
The test system of assay [3] is COLO 205 colon.
Assay [4] concerns SK-MEL-2 melanoma.
The subject of assay [5] is NCI-H23 lung.
The subject of assay [6] is TK-10 renal.
Assay [7] has as its system OVCAR-8 ovarian.
Assay [8] relates to UACC-62 melanoma.
For assay [9], the system named is SK-MEL-5 melanoma.
Assay [10] has as its system 786-0 renal.

As for `CN1CCN(c2ccc(NC(=O)c3nc4ccc5[nH]ncc5c4c4c3CCCC4)cc2C(F)(F)F)CC1`, the GI50 (usually the concentration at which growth is held to half of that of the control) in assay [1] was 0.798 µM; in assay [2] it was 1.52 µM; in assay [3] it was 0.84 µM; in assay [4], 7.33 µM; in [5] it was 1.5 µM; in assay [6], 1.04 µM. Also, the GI50 in [7] was 0.921 µM; in assay [8], 0.973 µM; in [9] it was 1.53 µM; in assay [10] it was 0.841 µM. The TGI (commonly the concentration at which net growth stops) was found to be 1.55 µM in [1]; 7.72 µM in assay [2]; 1.68 µM in assay [3]; 19.1 µM in assay [4]; 6.71 µM in [5]; 2.2 µM in assay [6]. In addition, the TGI in assay [7] is 1.91 µM; in assay [8], 1.83 µM; in assay [9] it was 5.23 µM; in assay [10] it was 1.52 µM.

As to `COc1ccc2c(c1)C(=O)c1c-2n(CCCN=[N+]=[N-])c(=O)c2cc(N(C)C)ccc12`, the GI50 in [1] was 5.16 µM; in assay [2], over 100 µM; in assay [3], over 100 µM; in assay [4] it was over 100 µM; in [5], over 100 µM; in assay [6], over 100 µM. The GI50 in assay [7] is 84.6 µM; in assay [8], over 100 µM; in assay [9], 23.8 µM; in [10] it was 29.5 µM. For the same molecule, the TGI in [1] is 80.8 µM; in assay [2], over 100 µM; in [3] it was over 100 µM; in [4], over 100 µM; in assay [5] it was over 100 µM; in assay [6], over 100 µM. The TGI in [7], in [8], in [9] and in [10] was over 100 µM throughout.

Regarding `OC1c2ccccc2C2(O)C1C(c1ccccc1)C(c1ccccc1)C2(O)c1ccccc1` (configuration not stated), the TGI was 76.2 µM in assay [1]; over 100 µM in assay [2]; 30.7 µM in assay [3]; 23.3 µM in [4]; 41.7 µM in [5]; 85.4 µM in [6]. Moreover, the TGI came out at 43.5 µM in assay [7], 28.4 µM in assay [8], 21.7 µM in assay [9] and 31.1 µM in assay [10].

Take `CCCc1c(CC)c(=N)c2ccccc2n1C`: the GI50 is over 100 µM in assay [1]; over 100 µM in assay [2]; over 100 µM in assay [3]; over 100 µM in [4]; 37.7 µM in [5]; over 100 µM in [6]. Besides, the GI50 in assay [7] was 48.9 µM; in [8] it was 66.3 µM; in assay [9], 24.9 µM; in [10], over 100 µM. In addition, the TGI in assay [1], in assay [2], in assay [3], in [4], in assay [5] and in assay [6] was over 100 µM each time. The TGI in assay [7], in assay [8], in assay [9] and in assay [10] was over 100 µM throughout.

`Oc1ccc(C(c2ccc(O)cc2)c2ccc(Cl)cn2)cc1`: the GI50 in assay [1] is 0.0593 µM; in assay [2], 22.1 µM; in assay [3], 0.0416 µM; in [4], 4.31 µM; in [5], 0.0959 µM; in assay [6] it was 0.0951 µM. The GI50 in assay [7] was 0.0346 µM; in assay [8], 1.59 µM; in assay [9], 15.6 µM; in [10] it was 36.2 µM. In addition, the TGI in assay [1] was 1.65 µM; in [2], over 100 µM; in assay [3], 4.97 µM; in [4] it was 60.3 µM; in [5], 0.983 µM; in assay [6], 0.525 µM. The TGI in assay [7] is 1.16 µM; in [8], 17.8 µM; in [9] it was 34.5 µM; in [10], over 100 µM.

As for `CCOC(=O)C1=C(C(=O)c2ccc(C)cc2)C(c2cccc([N+](=O)[O-])c2)C(C(=O)c2ccc(C)cc2)=C(C(=O)OCC)N1`, the TGI in assay [1] is 68.6 µM; in assay [2], 43.5 µM; in [3], 4.03 µM; in assay [4], over 100 µM; in assay [5], 30.1 µM; in assay [6], 43.2 µM. The TGI in [7] is 45 µM; in assay [8] it was 33.5 µM; in [9], 33.1 µM; in assay [10], 32.9 µM.

`O=Nc1c(-c2c(O)[nH]c3ccc([N+](=O)[O-])cc23)[nH]c2ccc(O)cc12`: the GI50 in [1] was 0.18 µM; in assay [2], 0.332 µM; in assay [3], 5.92 µM; in [4] it was 0.293 µM; in assay [5], 0.549 µM; in assay [6], 2.24 µM. Further, the GI50 is 0.36 µM in [7], 0.211 µM in [8], 0.189 µM in [9] and 0.319 µM in assay [10]. Moreover, the TGI in [1] was 0.475 µM; in assay [2], over 100 µM; in assay [3] it was 40.5 µM; in assay [4] it was 0.757 µM; in assay [5], over 49.5 µM; in assay [6], over 100 µM. The TGI in [7] is over 100 µM; in assay [8], 0.439 µM; in assay [9], 0.414 µM; in [10], over 100 µM.

As for `C=CCN(/C=C1/C(=O)O[C@H](COC)[C@@]2(C)C1=C(O)C(=O)C1=C2[C@H](OC(C)=O)C[C@]2(C)C(=O)CC[C@@H]12)CC=C`, the GI50 in assay [1] is 0.112 µM; in [2], 0.357 µM; in assay [3] it was 2.17 µM; in [4], 1.22 µM; in assay [5] it was over 5.65 µM; in assay [6] it was 0.193 µM. Besides, the GI50 in [7] was 2.87 µM; in [8], 0.144 µM; in assay [9] it was 3.16 µM; in assay [10], 0.379 µM. The TGI in assay [1] is 1.56 µM; in assay [2], over 10 µM; in assay [3] it was over 10 µM; in assay [4], over 6.23 µM; in [5], over 10 µM; in assay [6], over 7.79 µM. Besides, the TGI in [7] is over 10 µM; in [8], 4.45 µM; in [9] it was over 10 µM; in [10], over 10 µM.

Regarding `COc1ccccc1N=C(N)N/N=C/c1c[nH]c2ccccc12`, the TGI in [1] was found to be 27.3 µM; in assay [2], 26.7 µM; in [3], 3.32 µM; in assay [4], 19.2 µM; in assay [5] it was 19.2 µM; in assay [6], 30.9 µM. The TGI in assay [7] worked out at 28.2 µM; in assay [8], 27 µM; in assay [9], 8.91 µM; in [10], 26 µM.

Take `COc1ccc(-c2nc3sc(-c4ccc(Cl)cc4)cn3n2)cc1`: the GI50 was 6 µM in [1]; 1.79 µM in assay [2]; 2.65 µM in [3]; over 50 µM in assay [4]; 6.66 µM in assay [5]; 2.01 µM in assay [6]. The GI50 in assay [7] was 2.6 µM; in assay [8], 8.24 µM; in assay [9], 14 µM; in assay [10], 1.06 µM. Moreover, the TGI was 39.7 µM in assay [1]; 8.92 µM in assay [2]; over 50 µM in [3]; over 50 µM in [4]; over 50 µM in [5]; 5.62 µM in [6]. For the same molecule, the TGI is over 50 µM in assay [7], over 50 µM in assay [8], over 50 µM in [9] and 2.41 µM in assay [10].

With `COc1ccc(-c2cc(=O)c3c(C)cc(C)nc3[nH]2)cc1`, the TGI in assay [1] was over 100 µM; in assay [2], 82.9 µM; in [3], 42.6 µM; in [4] it was over 100 µM; in assay [5], over 100 µM; in assay [6], 99.2 µM. Also, the TGI in [7] is over 100 µM; in assay [8], 46.6 µM; in assay [9], 33.1 µM; in assay [10] it was over 100 µM. In addition, the GI50 in [9] was 17.6 µM; in [10] it was 58.8 µM.

On to `O=Cc1ccccc1OCCOc1cc(OCCOc2ccccc2C=O)c(OCCOc2ccccc2C=O)cc1OCCOc1ccccc1C=O`, for which the TGI in assay [1] is over 100 µM; in assay [2], over 100 µM; in [3] it was over 100 µM; in assay [4], over 100 µM; in assay [5] it was over 100 µM; in assay [6], 96.8 µM. Besides, the TGI in assay [7] is over 100 µM; in [8] it was over 100 µM; in assay [9] it was over 100 µM; in assay [10] it was over 71.3 µM.

For `C=C(CCCCCCCCC)CC(=O)SCCNC(=O)CCNC(=O)C(O)C(C)(C)COP(=O)(O)OP(=O)(O)OCC1OC(n2cnc3c(N)ncnc32)C(O)C1OP(=O)(O)O` (configuration not stated), the TGI in assay [1] was over 100 µM; in assay [2] it was over 100 µM; in assay [3], over 100 µM; in assay [4], 99.3 µM; in assay [5], over 100 µM; in [6], over 100 µM. The TGI in assay [7] was over 100 µM; in [8], 46.1 µM; in assay [9] it was 52.2 µM; in assay [10], over 100 µM.

On to `COc1ccc(N2Cc3cnc(Nc4ccccc4)nc3N([C@@H]3CC[C@@H](O)C3)C2=O)cc1`, for which the GI50 in [1] is 0.399 µM; in assay [2], 1.36 µM; in [3], 2.76 µM; in assay [4] it was 5.21 µM; in [5] it was 8.17 µM; in assay [6] it was 1.54 µM. Further, the GI50 in [7] was 4.86 µM; in assay [8] it was 2.74 µM; in assay [9] it was 9.25 µM; in assay [10] it was 3.08 µM. Also, the TGI was 3.18 µM in assay [1]; over 9.74 µM in assay [2]; over 25 µM in [3]; 17.5 µM in [4]; over 25 µM in assay [5]; 12.9 µM in assay [6]. Besides, the TGI in assay [7], in assay [8], in assay [9] and in [10] was over 25 µM throughout.

Take `CC(=O)NNc1nc(C)c(C(=O)NNC(=O)C(=O)Nc2c(C)cccc2C)s1`: the TGI was 88.2 µM in assay [1]; over 100 µM in assay [2]; over 100 µM in [3]; over 100 µM in assay [4]; 60.1 µM in assay [5]; over 100 µM in [6]. Further, the TGI in [7] is 80.1 µM; in assay [8], over 100 µM; in [9], over 100 µM; in assay [10], over 100 µM.

For the molecule `O=C(c1ccc(Cl)cc1)c1ccc(OCCCCCCCCCCOc2ccc(C(=O)c3ccc(Cl)cc3)cc2)cc1`, the TGI in assay [1], in [2], in assay [3], in assay [4], in [5] and in assay [6] was over 100 µM in each case. Further, the TGI in assay [7], in assay [8], in assay [9] and in assay [10] was over 100 µM in each case.

Regarding `Cc1c(S(C)(=O)=O)c(-c2cc(F)cc(N3CCN(c4ccc(NS(=O)(=O)c5ccc(N[C@H](CCN6CCC(C(=O)OCCCP(=O)(O)O)CC6)CSc6ccccc6)c(S(=O)(=O)C(F)(F)F)c5)cc4)CC3)c2)c(-c2ccc(Cl)cc2)n1C(C)C`, the GI50 in assay [1] is over 100 µM; in assay [2] it was over 100 µM; in assay [3] it was over 100 µM; in assay [4] it was over 100 µM; in assay [5] it was over 100 µM; in assay [6] it was 25.8 µM. For the same molecule, the GI50 in assay [7], in assay [8], in assay [9] and in assay [10] was over 100 µM each time. For the same molecule, the concentration for total growth inhibition (TGI) in [1], in [2], in [3], in assay [4], in assay [5] and in [6] was over 100 µM in each case. Moreover, the TGI in assay [7], in assay [8], in assay [9] and in assay [10] was over 100 µM throughout.

For the molecule `CC1OC(OCC2OC(Oc3c(-c4ccc(O)cc4)oc4cc(O)cc(O)c4c3=O)C(OC3OC(C)C(O)C(O)C3O)C(O)C2O)C(O)C(O)C1O` (configuration not stated), the TGI in assay [1] was over 100 µM; in assay [2], over 100 µM; in [3], over 72.7 µM; in assay [4] it was over 100 µM; in [5], over 100 µM; in [6], over 100 µM. Also, the TGI in [7], in assay [8], in [9] and in [10] was over 100 µM each time.
